Assay results reported in patent US20230263822A1, “MODULATION OF FACTOR 11 EXPRESSION” (Ionis Pharmaceuticals, Inc., priority 2008, published 2023).

Assay: Hematology assays in cynomolgus monkeys (Example 45)
Format: in vivo
Conditions: for MCH / MCHC / MCV / RBC count / WBC count / hematocrit / hemoglobin: escalating dose regimen
Description: Groups, each consisting of two male and three female monkeys, were injected subcutaneously with ISIS 416838, ISIS 416850, ISIS 416858, ISIS 416864, or ISIS 417002 in escalating doses. Antisense oligonucleotide was administered to the monkeys at 5 mg/kg three times per a week for week 1; 5 mg/kg twice per week for weeks 2 and 3; 10 mg/kg three times per week for week 4; 10 mg/kg twice per week for weeks 5 and 6; 25 mg/kg three times per week for week 7; and 25 mg/kg twice per week for weeks 8, 9, 10, 11, and 12. One control group, consisting of two male and three female monkeys, was injected subcutaneously with PBS according to the same dosing regimen. An additional experimental group, consisting of two male and three female monkeys, was injected subcutaneously with ISIS 416850 in a chronic, lower dose regimen. Antisense oligonucleotide was administered to the monkeys at 5 mg/kg three times per week for week 1; 5 mg/kg twice per week for week 2 and 3; 10 mg/kg three times per week for week 4; and 10 mg/kg twice per week for weeks 5 to 12. Body weights were measured weekly. Blood samples were collected 14 days and 5 days before the start of treatment and subsequently once per week for Factor 11 protein activity analysis in plasma, fibrinogen measurement, PT and aPTT measurements, bleeding times, and measurement of various hematologic factors. On day 85, the monkeys were euthanized by exsanguination while under deep anesthesia, and organs harvested for further analysis.
The ISIS oligonucleotide, ISIS 416850, given with the chronic dose regimen is distinguished from the other oligonucleotides with an asterisk (*).

ISIS 416858: MOE gapmer, nucleobases 1275 to 1318 of SEQ ID NO: 1 (Table 8) (antisense ACGGCATTGGTGCACAGTTT; MOE gapmer, wing and gap sizes not given here)
MCH (Day 64): 22 pg | MCH (Day 71): 22 pg | MCH (Day 78): 23 pg | MCH (Day 85): 22 pg | basophils (day 8): 0.3% | eosinophils (day 8): 0.3% | lymphocytes (day 8): 45% | monocytes (day 8): 2.7% | neutrophils (day 8): 51% | platelet count (day 8): 391000 µL⁻¹ | reticulocytes (day 8): 1.2% | MCH (day 8): 23 pg | MCHC (day 8): 30 g/dL | MCV (day 8): 77 fL | RBC count (day 8): 5.6e+06 µL⁻¹ | WBC count (day 8): 12000 µL⁻¹ | hematocrit (day 8): 43% | hemoglobin (day 8): 12.8 g/dL | basophils (day 15): 0.2% | eosinophils (day 15): 0.3% | lymphocytes (day 15): 43% | monocytes (day 15): 2.2% | neutrophils (day 15): 54% | platelet count (day 15): 400000 µL⁻¹ | reticulocytes (day 15): 1.6% | MCH (day 15): 23 pg | MCHC (day 15): 31 g/dL | MCV (day 15): 74 fL | RBC count (day 15): 5.4e+06 µL⁻¹ | WBC count (day 15): 11000 µL⁻¹ | hematocrit (day 15): 40% | hemoglobin (day 15): 12.6 g/dL | basophils (day 22): 0.2% | eosinophils (day 22): 0.6% | lymphocytes (day 22): 49% | monocytes (day 22): 2.8% | neutrophils (day 22): 47% | platelet count (day 22): 316000 µL⁻¹ | reticulocytes (day 22): 1.3% | MCH (day 22): 24 pg | MCHC (day 22): 30 g/dL | MCV (day 22): 77 fL | RBC count (day 22): 5.3e+06 µL⁻¹ | WBC count (day 22): 11000 µL⁻¹ | hematocrit (day 22): 41% | hemoglobin (day 22): 12.4 g/dL | basophils (day 29): 0.2% | eosinophils (day 29): 0.6% | lymphocytes (day 29): 51% | monocytes (day 29): 3.8% | neutrophils (day 29): 43% | platelet count (day 29): 336000 µL⁻¹ | reticulocytes (day 29): 1.5% | MCH (day 29): 23 pg | MCHC (day 29): 30 g/dL | MCV (day 29): 78 fL | RBC count (day 29): 5.3e+06 µL⁻¹ | WBC count (day 29): 12000 µL⁻¹ | hematocrit (day 29): 41% | hemoglobin (day 29): 12.3 g/dL | basophils (day 36): 0.3% | eosinophils (day 36): 0.4% | lymphocytes (day 36): 49% | monocytes (day 36): 2.9% | neutrophils (day 36): 47% | platelet count (day 36): 371000 µL⁻¹ | reticulocytes (day 36): 1.6% | MCH (day 36): 23 pg | MCHC (day 36): 31 g/dL | MCV (day 36): 75 fL | RBC count (day 36): 5.5e+06 µL⁻¹ | WBC count (day 36): 12000 µL⁻¹ | hematocrit (day 36): 40% | hemoglobin (day 36): 12.6 g/dL | basophils (day 43): 0.3% | eosinophils (day 43): 0.3% | lymphocytes (day 43): 51% | monocytes (day 43): 3.1% | neutrophils (day 43): 45% | platelet count (day 43): 342000 µL⁻¹ | reticulocytes (day 43): 1.3% | MCH (day 43): 23 pg | MCHC (day 43): 31 g/dL | MCV (day 43): 74 fL | RBC count (day 43): 5.5e+06 µL⁻¹ | WBC count (day 43): 11000 µL⁻¹ | hematocrit (day 43): 40% | hemoglobin (day 43): 12.4 g/dL | basophils (day 50): 0.4% | eosinophils (day 50): 0.4% | lymphocytes (day 50): 48% | monocytes (day 50): 4.6% | neutrophils (day 50): 46% | platelet count (day 50): 331000 µL⁻¹ | reticulocytes (day 50): 1.5% | MCH (day 50): 23 pg | MCHC (day 50): 30 g/dL | MCV (day 50): 76 fL | RBC count (day 50): 5.5e+06 µL⁻¹ | WBC count (day 50): 13000 µL⁻¹ | hematocrit (day 50): 41% | hemoglobin (day 50): 12.2 g/dL | basophils (day 57): 0.2% | eosinophils (day 57): 0.3% | lymphocytes (day 57): 51% | monocytes (day 57): 3.8% | neutrophils (day 57): 44% | platelet count (day 57): 333000 µL⁻¹ | reticulocytes (day 57): 1.4% | MCH (day 57): 22 pg | MCHC (day 57): 31 g/dL | MCV (day 57): 74 fL | RBC count (day 57): 5.6e+06 µL⁻¹ | WBC count (day 57): 13000 µL⁻¹ | hematocrit (day 57): 41% | hemoglobin (day 57): 12.7 g/dL | basophils (day 64): 0.4% | eosinophils (day 64): 0.4% | lymphocytes (day 64): 56% | monocytes (day 64): 4.4% | neutrophils (day 64): 37% | platelet count (day 64): 295000 µL⁻¹ | reticulocytes (day 64): 1.0% | MCHC (day 64): 30 g/dL | MCV (day 64): 73 fL | RBC count (day 64): 5.7e+06 µL⁻¹ | WBC count (day 64): 12000 µL⁻¹ | hematocrit (day 64): 42% | hemoglobin (day 64): 12.8 g/dL | basophils (day 71): 0.4% | eosinophils (day 71): 0.9% | lymphocytes (day 71): 66% | monocytes (day 71): 4.9% | neutrophils (day 71): 26% | platelet count (day 71): 286000 µL⁻¹ | reticulocytes (day 71): 1.3% | MCHC (day 71): 30 g/dL | MCV (day 71): 75 fL | RBC count (day 71): 5.6e+06 µL⁻¹ | WBC count (day 71): 13000 µL⁻¹ | hematocrit (day 71): 42% | hemoglobin (day 71): 12.7 g/dL | basophils (day 78): 0.4% | eosinophils (day 78): 0.5% | lymphocytes (day 78): 54% | monocytes (day 78): 4.9% | neutrophils (day 78): 39% | platelet count (day 78): 262000 µL⁻¹ | reticulocytes (day 78): 1.2% | MCHC (day 78): 32 g/dL | MCV (day 78): 72 fL | RBC count (day 78): 5.4e+06 µL⁻¹ | WBC count (day 78): 11000 µL⁻¹ | hematocrit (day 78): 39% | hemoglobin (day 78): 12.4 g/dL | basophils (day 85): 0.3% | eosinophils (day 85): 0.6% | lymphocytes (day 85): 52% | monocytes (day 85): 6.1% | neutrophils (day 85): 40% | platelet count (day 85): 267000 µL⁻¹ | reticulocytes (day 85): 1.3% | MCHC (day 85): 31 g/dL | MCV (day 85): 72 fL | RBC count (day 85): 5.5e+06 µL⁻¹ | WBC count (day 85): 11000 µL⁻¹ | hematocrit (day 85): 39% | hemoglobin (day 85): 11.9 g/dL | basophils (day −5): 0.3% | eosinophils (day −5): 1.3% | lymphocytes (day −5): 49% | monocytes (day −5): 2.8% | neutrophils (day −5): 46% | platelet count (day −5): 463000 µL⁻¹ | reticulocytes (day −5): 0.9% | MCH (day −5): 23 pg | MCHC (day −5): 31 g/dL | MCV (day −5): 75 fL | RBC count (day −5): 5.6e+06 µL⁻¹ | WBC count (day −5): 14000 µL⁻¹ | hematocrit (day −5): 42% | hemoglobin (day −5): 13.2 g/dL | basophils (day −14): 0.3% | eosinophils (day −14): 0.7% | lymphocytes (day −14): 58% | monocytes (day −14): 2.8% | neutrophils (day −14): 37% | platelet count (day −14): 419000 µL⁻¹ | reticulocytes (day −14): 1.0% | MCH (day −14): 24 pg | MCHC (day −14): 31 g/dL | MCV (day −14): 77 fL | RBC count (day −14): 5.6e+06 µL⁻¹ | WBC count (day −14): 14000 µL⁻¹ | hematocrit (day −14): 43% | hemoglobin (day −14): 13.2 g/dL
